In PubChem BioAssay AID743396 (Broad Institute, 2014):
Calls of active or inactive are those of the source.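 Rule for the calls: active = fitted curve reaches a 40% rise in fluorescent cells at or below the top valid dose; inactive = opposite-direction effect, or the rest.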

Each compound was assayed on mTEFS fibroblasts autofluorescence, GFP-channel imaging, 3 days (assay: autofluorescent compounds in non-GFP fibroblasts, dose response, artefact control for X-chromosome reactivation project, imaging, mTEFS fibroblasts, cherry-pick (AID 743396)). Conditions: cells pretreated with 5-aza-dC.

Question: For `CCCN1C(=O)S/C(=C\c2ccc(N3CCOCC3)o2)C1=O`, which AC40 is on record?
Answer: The AC40 was > 19.5 µM (inactive).

Question: With `COc1ccc(C(=O)Nc2c(F)c(F)c(F)c(F)c2F)cc1OC` as the compound, how does the AC40 read?
Answer: The AC40 was > 19.5 µM (inactive).

Question: Which AC40 does the source give for `CCN1/C(=C\c2ccc3ccccc3[n+]2CC)Sc2cc(C)ccc21` here?
Answer: The AC40 was 0.582 µM.

Question: How did the AC40 turn out when `COc1cc(N2CCCC2)c(OC)cc1/C=C1/NC(=S)NC1=O` was run?
Answer: The AC40 was > 19.5 µM (inactive).

Question: Which AC40 does the source give for `CCN1CCc2c(sc(NC(=O)Nc3ccc(Cl)c(Cl)c3)c2C(N)=O)C1` here?
Answer: The AC40 was 0.558 µM.

Question: For `CCN1CCc2c(sc(NC(=O)c3ccc4ccccc4c3)c2C(N)=O)C1`, which AC40 is on record?
Answer: Its AC40 is 3.45 µM.

Question: `CCN(CC)c1ccc(/C=C(/C#N)C(=O)NCc2ccccc2)o1` was tested. Which AC40 did it give?
Answer: The AC40 was 5.55 µM.

Question: `CC(=O)Oc1cccc(N2C(=O)c3cccc4c([N+](=O)[O-])ccc(c34)C2=O)c1` was tested. Which AC40 did it give?
Answer: The AC40 was > 19.5 µM (inactive).

Question: With `COC1=CC(=O)c2c(ccc3ncnc(N)c23)C1=O` as the compound, how does the AC40 read?
Answer: The AC40 was > 19.5 µM (inactive).

Question: How did the AC40 turn out when `Cn1c(=O)[nH]c(=O)c2c1nc(SCCN1CCOCC1)n2CCCc1ccccc1` was run?
Answer: Its AC40 is 10.9 µM.

Question: How did the AC40 turn out when `O=c1[nH]c(=O)n([C@H]2C[C@H](O)[C@@H](CO)O2)cc1C(F)(F)F` was run?
Answer: The AC40 was > 19.5 µM (inactive).

Question: For `COC1C(CO)OC(n2c3c(Cl)cccc3c3c4c(c5c6cccc(Cl)c6[nH]c5c32)C(=O)NC4=O)C(O)C1O` (centres undefined), which AC40 is on record?
Answer: Its AC40 is > 19.5 µM (inactive).

Question: `CC(O)CN(CC(C)O)c1ccc2c(c1)Cc1cc([N+](=O)[O-])ccc1-2` (centres undefined) was tested. Which AC40 did it give?
Answer: The AC40 was > 19.5 µM (inactive).

Question: For `Cc1nonc1NC(=O)CSc1nc2c(C)cccc2cc1C#N`, which AC40 is on record?
Answer: Its AC40 is 9.02 µM.

Question: Which AC40 does the source give for `C[C@H]1CN([C@@H](C)CO)S(=O)(=O)c2ccc(Br)cc2O[C@H]1CN(C)C(=O)c1cccnc1` here?
Answer: The AC40 was > 6.8 µM (inactive).

Question: How did the AC40 turn out when `O=C(N/N=C\c1c(O)ccc2ccccc12)c1ccc(S(=O)(=O)N2CCCCC2)cc1` was run?
Answer: Its AC40 is 19.2 µM.

Question: For `CN1CCc2c(sc(NC(=O)c3ccc(S(=O)(=O)N4CCc5ccccc54)cc3)c2C(N)=O)C1`, which AC40 is on record?
Answer: The AC40 was 18 µM.

Question: With `COc1ccc(/C=C/C(=O)c2ccc([N+](=O)[O-])o2)cc1OC` as the compound, how does the AC40 read?
Answer: Its AC40 is > 19.5 µM (inactive).

Question: `CCc1cccc2cc3c(N)c(C(=O)Nc4ccc(S(=O)(=O)N5CCCC5)cc4)sc3nc12` was tested. Which AC40 did it give?
Answer: Its AC40 is 7.09 µM.

Question: Which AC40 does the source give for `NC(=O)c1c(NC(=O)c2ccccc2)sc2c1CCN(Cc1ccccc1)C2` here?
Answer: The AC40 was > 19.5 µM (inactive).

Question: For `N#C/C(=C\c1ccc([N+](=O)[O-])o1)c1nc2ccccc2[nH]1`, which AC40 is on record?
Answer: Its AC40 is > 19.5 µM (inactive).

Question: Which AC40 does the source give for `CCN1/C(=C/C=C/c2oc3ccc(-c4ccccc4)cc3[n+]2CC)Oc2ccc(-c3ccccc3)cc21` here?
Answer: The AC40 was 0.00627 µM.

Question: `CCOC(=O)Cn1c(=O)c(-c2cc(Br)ccc2N)nc2ccccc21` was tested. Which AC40 did it give?
Answer: Its AC40 is > 19.5 µM (inactive).

Question: For `Cc1ccc(C(=O)N/C(=C/c2ccc(-c3ccc([N+](=O)[O-])cc3)o2)C(=O)NCCCN(C)C)cc1`, which AC40 is on record?
Answer: The AC40 was 5.7 µM.

Question: `Nc1c(C(=O)c2ccccc2)sc2nsc(SCCN3CCCC3)c12` was tested. Which AC40 did it give?
Answer: Its AC40 is 10.5 µM.

Question: With `COc1ccc(CCNC(=O)c2ccc([N+](=O)[O-])cc2)cc1` as the compound, how does the AC40 read?
Answer: The AC40 was 18.8 µM.

Question: How did the AC40 turn out when `O=c1oc2cc(O)ccc2cc1-c1nc2c(s1)CCc1ccccc1-2` was run?
Answer: Its AC40 is 4.39 µM.

Question: With `Nc1[nH]c2cc([N+](=O)[O-])ccc2c1-c1ccccn1` as the compound, how does the AC40 read?
Answer: The AC40 was 8.95 µM.

Question: With `CC(C)CCN1C(=O)c2cccc3c(N)ccc(c23)C1=O` as the compound, how does the AC40 read?
Answer: The AC40 was 5.86 µM.

Question: With `O=CNc1ccc2c3c(cccc13)-c1ccccc1-2` as the compound, how does the AC40 read?
Answer: Its AC40 is 8.57 µM.

Question: With `Cc1ccc(NC(=O)/C=C/c2ccc([N+](=O)[O-])s2)c(C)c1` as the compound, how does the AC40 read?
Answer: Its AC40 is 7.81 µM.

Question: For `O=C(NC1CCCC1)c1cccc2c1C(=O)c1ccc(/C=C/c3ccccc3)cc1S2(=O)=O`, which AC40 is on record?
Answer: Its AC40 is > 19.5 µM (inactive).

Question: `CC(C)N1CCc2c(sc(NC(=O)c3ccc4ccccc4c3)c2C(N)=O)C1` was tested. Which AC40 did it give?
Answer: The AC40 was 10.6 µM.

Question: With `CN(C)S(=O)(=O)c1ccc2c(c1)/C(=C/c1cc3c([nH]1)CCCC3)C(=O)N2` as the compound, how does the AC40 read?
Answer: The AC40 was 3.17 µM.

Question: How did the AC40 turn out when `COc1ccc(C(=O)c2sc3nc(C)cc(-c4cccs4)c3c2N)cc1` was run?
Answer: The AC40 was 14.5 µM.

Question: For `COC(=O)C1=C(C)NC(C)=C(C(=O)OC)C1C(=O)OCC(=O)c1ccc(F)cc1`, which AC40 is on record?
Answer: The AC40 was > 19.5 µM (inactive).

Question: For `COc1ccc(C(=O)c2sc3nc(C)cc(-c4cccs4)c3c2N)cc1OC`, which AC40 is on record?
Answer: The AC40 was 16.3 µM.

Question: How did the AC40 turn out when `c1ccc(-c2cnn3c(-c4ccccc4)c(-c4ccccc4)nc3n2)cc1` was run?
Answer: The AC40 was 2.58 µM.

Question: Which AC40 does the source give for `O=C1c2ccccc2C(=O)C1c1ccccc1` here?
Answer: The AC40 was > 19.5 µM (inactive).

Question: `CCOC(=O)/C(=C/C=C1\Sc2cc(C)c(C)cc2N1CC)C(C)=O` was tested. Which AC40 did it give?
Answer: Its AC40 is 12.5 µM.

Question: Which AC40 does the source give for `Cc1cccc(NC(=O)/C=C/c2ccc([N+](=O)[O-])s2)c1` here?
Answer: Its AC40 is 3.68 µM.

Question: With `COc1ccccc1N1N=C(c2ccc([N+](=O)[O-])cc2)CC1c1ccccc1` (centres undefined) as the compound, how does the AC40 read?
Answer: Its AC40 is 5.77 µM.

Question: Which AC40 does the source give for `Cc1cccc2cc3c(N)c(C(=O)N4CCc5ccccc54)sc3nc12` here?
Answer: Its AC40 is 10.5 µM.

Question: Which AC40 does the source give for `CCN1/C(=C/c2ccc3cc(C)ccc3[n+]2CC)Sc2ccccc21` here?
Answer: Its AC40 is 0.395 µM.

Question: With `CCN1CCc2c(sc(NC(=O)c3ccc(S(=O)(=O)N(CC)c4ccccc4)cc3)c2C(N)=O)C1` as the compound, how does the AC40 read?
Answer: The AC40 was 6.59 µM.

Question: With `N#C/C(=C\c1ccc(N2CCCCC2)o1)C(=O)Nc1cccc(Br)c1` as the compound, how does the AC40 read?
Answer: Its AC40 is 0.919 µM.

Question: How did the AC40 turn out when `Cc1n[nH]c(=S)n(/N=C/c2cccc([N+](=O)[O-])c2)c1=O` was run?
Answer: Its AC40 is > 19.5 µM (inactive).

Question: How did the AC40 turn out when `O=[N+]([O-])c1ccc(N/N=C/c2sc(N3CCOCC3)nc2-c2ccccc2)c(S(=O)(=O)Nc2ccc(Cl)cc2)c1` was run?
Answer: Its AC40 is > 6.8 µM (inactive).

Question: With `N#C/C(=C/c1ccc(N2CCCCC2)o1)C(=O)Nc1ccc2ccccc2c1` as the compound, how does the AC40 read?
Answer: Its AC40 is 1.53 µM.
